In patent US9174994B2, “Enhanced treatment regimens using mTor inhibitors” (INTELLIKINE LLC, priority 2011, dated 2015):

Experiment: Phase I clinical trial: treatment-emergent adverse events (patients, n (%)), dose limiting toxicity, MTD
Format: in vivo
[1] = Table 8: Total QDx5d QW (N = 6)
[2] = Table 8: Total QW Dosing (N = 15)
[3] = all 3 intermittent dosing regimens, n=35

Method: Safety, maximum tolerated dose (MTD), pharmacokinetics (PK) and preliminary antitumor activity were evaluated.
Pharmacodynamic (PD) endpoints were evaluated in surrogate (peripheral blood cells [PBCs], skin) and tumor tissues for the phosphorylation of TORC1-dependent markers (4EBP1/S6), and TORC2-dependent markers (AKT/PRAS40).

Structure (SMILES): CC(C)n1nc(-c2ccc3oc(N)nc3c2)c2c(N)ncnc21 [compound A]
- Weight decreased (Table 8: Total QDx3d QW (N = 14)): 0 (0%)
- Catheter site inflammation [1]: 0 (0%)
- Catheter site pain [1]: 0 (0%)
- Coagulopathy [1]: 0 (0%)
- Confusional state [1]: 0 (0%)
- Cough [1]: 0 (0%)
- DIARRHEA [1]: 0 (0%)
- Dizziness [1]: 0 (0%)
- Dyspnoea exertional [1]: 0 (0%)
- Eye infection [1]: 0 (0%)
- Fatigue [1]: 0 (0%)
- Gastritis [1]: 0 (0%)
- Gravitational oedema [1]: 0 (0%)
- Headache [1]: 0 (0%)
- Hyperbilirubinaemia [1]: 0 (0%)
- Hypertransaminasaemia [1]: 0 (0%)
- Hypertriglyceridaemia [1]: 0 (0%)
- Hypocalcaemia [1]: 0 (0%)
- Hypomagnesaemia [1]: 0 (0%)
- Hypotension [1]: 0 (0%)
- Insomnia [1]: 0 (0%)
- Low fever [1]: 0 (0%)
- Malaise [1]: 0 (0%)
- Nausea [1]: 1 (17%)
- Oral discomfort [1]: 0 (0%)
- Orthostatic hypotension [1]: 0 (0%)
- Palmar-plantar erythrodysaesthesia syndrome [1]: 0 (0%)
- Panniculitis [1]: 0 (0%)
- Platelet count decreased [1]: 0 (0%)
- Polyuria [1]: 0 (0%)
- Pyrexia [1]: 0 (0%)
- Rash [1]: 0 (0%)
- Rash macular [1]: 0 (0%)
- Skin discolouration [1]: 0 (0%)
- Skin exfoliation [1]: 0 (0%)
- Urinary tract infection [1]: 0 (0%)
- Urine tract infection [1]: 1 (17%)
- Vomiting [1]: 1 (17%)
- WEAKNESS [1]: 0 (0%)
- Weight decreased [1]: 0 (0%)
- Catheter site inflammation [2]: 0 (0%)
- Catheter site pain [2]: 0 (0%)
- Coagulopathy [2]: 0 (0%)
- Confusional state [2]: 0 (0%)
- Cough [2]: 0 (0%)
- DIARRHEA [2]: 1 (7%)
- Dizziness [2]: 0 (0%)
- Dyspnoea exertional [2]: 0 (0%)
- Eye infection [2]: 0 (0%)
- Fatigue [2]: 0 (0%)
- Gastritis [2]: 0 (0%)
- Gravitational oedema [2]: 0 (0%)
- Headache [2]: 0 (0%)
- Hyperbilirubinaemia [2]: 0 (0%)
- Hypertransaminasaemia [2]: 0 (0%)
- Hypertriglyceridaemia [2]: 0 (0%)
- Hypocalcaemia [2]: 0 (0%)
- Hypomagnesaemia [2]: 0 (0%)
- Hypotension [2]: 0 (0%)
- Insomnia [2]: 0 (0%)
- Low fever [2]: 0 (0%)
- Malaise [2]: 1 (7%)
- Nausea [2]: 0 (0%)
- Oral discomfort [2]: 1 (7%)
- Orthostatic hypotension [2]: 0 (0%)
- Palmar-plantar erythrodysaesthesia syndrome [2]: 0 (0%)
- Panniculitis [2]: 0 (0%)
- Platelet count decreased [2]: 0 (0%)
- Polyuria [2]: 0 (0%)
- Pyrexia [2]: 0 (0%)
- Rash [2]: 1 (7%)
- Rash macular [2]: 0 (0%)
- Skin discolouration [2]: 0 (0%)
- Skin exfoliation [2]: 0 (0%)
- Urinary tract infection [2]: 0 (0%)
- Urine tract infection [2]: 0 (0%)
- Vomiting [2]: 0 (0%)
- WEAKNESS [2]: 1 (7%)
- Weight decreased [2]: 0 (0%)
- Grade 3 or greater TEAE: Abdominal pain upper (Total (N = 60)): 1 (2%)
- Grade 3 or greater TEAE: Anaemia (Total (N = 60)): 1 (2%)
- Grade 3 or greater TEAE: Aspartate aminotransferase increased (Total (N = 60)): 1 (2%)
- Grade 3 or greater TEAE: Asthenia (Total (N = 60)): 1 (2%)
- Grade 3 or greater TEAE: Catheter related infection (Total (N = 60)): 1 (2%)
- Grade 3 or greater TEAE: Cellulitis (Total (N = 60)): 1 (2%)
- Grade 3 or greater TEAE: Diarrhoea (Total (N = 60)): 3 (5%)
- Grade 3 or greater TEAE: Disease progression (Total (N = 60)): 1 (2%)
- Grade 3 or greater TEAE: Enterocutaneous fistula (Total (N = 60)): 1 (2%)
- Grade 3 or greater TEAE: Gamma-glutamyltransferase increased (Total (N = 60)): 2 (3%)
- Grade 3 or greater TEAE: Gastroenteritis (Total (N = 60)): 1 (2%)
- Grade 3 or greater TEAE: Hyperglycaemia (Total (N = 60)): 5 (8%)
- Grade 3 or greater TEAE: Hypokalaemia (Total (N = 60)): 2 (3%)
- Grade 3 or greater TEAE: Hyponatraemia (Total (N = 60)): 2 (3%)
- Grade 3 or greater TEAE: Lymphopenia (Total (N = 60)): 4 (7%)
- Grade 3 or greater TEAE: Pancreatitis acute (Total (N = 60)): 1 (2%)
- Grade 3 or greater TEAE: Pleural effusion (Total (N = 60)): 1 (2%)
- Grade 3 or greater TEAE: Pruritus (Total (N = 60)): 2 (3%)
- Grade 3 or greater TEAE: Rash (Total (N = 60)): 7 (12%)
- Grade 3 or greater TEAE: Rash macular (Total (N = 60)): 1 (2%)
- Grade 3 or greater TEAE: Somnolence (Total (N = 60)): 1 (2%)
- Grade 3 or greater TEAE: Thrombocytopenia (Total (N = 60)): 2 (3%)
- Grade 3 or greater TEAE: Urinary tract infection (Total (N = 60)): 1 (2%)
- Patients Reporting at Least One Grade 3 or Greater TEAE (Total (N = 60)): 25 (42%)
- Anaemia (Total QD Dosing (N = 25)): 2 (8%)
- Asthenia (Total QD Dosing (N = 25)): 6 (24%)
- Blood creatinine increased (Total QD Dosing (N = 25)): 6 (24%)
- Coagulopathy (Total QD Dosing (N = 25)): 1 (4%)
- Confusional state (Total QD Dosing (N = 25)): 1 (4%)
- Cough (Total QD Dosing (N = 25)): 1 (4%)
- Decreased appetite (Total QD Dosing (N = 25)): 6 (24%)
- Dehydration (Total QD Dosing (N = 25)): 2 (8%)
- Diarrhoea (Total QD Dosing (N = 25)): 8 (32%)
- Dizziness (Total QD Dosing (N = 25)): 1 (4%)
- Dry mouth (Total QD Dosing (N = 25)): 5 (20%)
- Dry skin (Total QD Dosing (N = 25)): 1 (4%)
- Dysgeusia (Total QD Dosing (N = 25)): 8 (32%)
- Dyspepsia (Total QD Dosing (N = 25)): 1 (4%)
- Dyspnoea (Total QD Dosing (N = 25)): 1 (4%)
- Dyspnoea exertional (Total QD Dosing (N = 25)): 1 (4%)
- Eye infection (Total QD Dosing (N = 25)): 1 (4%)
- Fatigue (Total QD Dosing (N = 25)): 6 (24%)
- Gastritis (Total QD Dosing (N = 25)): 1 (4%)
- Gravitational oedema (Total QD Dosing (N = 25)): 1 (4%)
- Hypercholesterolaemia (Total QD Dosing (N = 25)): 5 (20%)
- Hyperglycaemia (Total QD Dosing (N = 25)): 22 (88%)
- Hypocalcaemia (Total QD Dosing (N = 25)): 1 (4%)
- Insomnia (Total QD Dosing (N = 25)): 1 (4%)
- Lymphopenia (Total QD Dosing (N = 25)): 3 (12%)
- Mucosal inflammation (Total QD Dosing (N = 25)): 8 (32%)
- Muscle spasms (Total QD Dosing (N = 25)): 1 (4%)
- Nausea (Total QD Dosing (N = 25)): 9 (36%)
- Orthostatic hypotension (Total QD Dosing (N = 25)): 1 (4%)
- Panniculitis (Total QD Dosing (N = 25)): 1 (4%)
- Patients Reporting at Least One Related TEAE (Total QD Dosing (N = 25)): 25 (100%)
- Polyuria (Total QD Dosing (N = 25)): 1 (4%)
- Pruritus (Total QD Dosing (N = 25)): 9 (36%)
- Rash (Total QD Dosing (N = 25)): 13 (52%)
- Skin discolouration (Total QD Dosing (N = 25)): 1 (4%)
- Skin exfoliation (Total QD Dosing (N = 25)): 1 (4%)
- Thrombocytopenia (Total QD Dosing (N = 25)): 4 (16%)
- Vomiting (Total QD Dosing (N = 25)): 6 (24%)
- Weight decreased (Total QD Dosing (N = 25)): 1 (4%)
- Alanine aminotransferase increased (Total QDx3d QW (N = 14)): 1 (7%)
- Asthenia (Total QDx3d QW (N = 14)): 3 (21%)
- Catheter site inflammation (Total QDx3d QW (N = 14)): 1 (7%)
- Catheter site pain (Total QDx3d QW (N = 14)): 1 (7%)
- Decreased appetite (Total QDx3d QW (N = 14)): 1 (7%)
- Diarrhoea (Total QDx3d QW (N = 14)): 2 (14%)
- Dry skin (Total QDx3d QW (N = 14)): 1 (7%)
- Dysgeusia (Total QDx3d QW (N = 14)): 1 (7%)
- Dyspnoea (Total QDx3d QW (N = 14)): 1 (7%)
- Fatigue (Total QDx3d QW (N = 14)): 1 (7%)
- Headache (Total QDx3d QW (N = 14)): 1 (7%)
- Hyperbilirubinaemia (Total QDx3d QW (N = 14)): 1 (7%)
- Hypercholesterolaemia (Total QDx3d QW (N = 14)): 1 (7%)
- Hyperglycaemia (Total QDx3d QW (N = 14)): 6 (43%)
- Hypertransaminasaemia (Total QDx3d QW (N = 14)): 1 (7%)
- Hypertriglyceridaemia (Total QDx3d QW (N = 14)): 1 (7%)
- Hypomagnesaemia (Total QDx3d QW (N = 14)): 1 (7%)
- Hypotension (Total QDx3d QW (N = 14)): 1 (7%)
- Low fever (Total QDx3d QW (N = 14)): 1 (7%)
- Lymphopenia (Total QDx3d QW (N = 14)): 1 (7%)
- Mucosal inflammation (Total QDx3d QW (N = 14)): 7 (50%)
- Nausea (Total QDx3d QW (N = 14)): 6 (43%)
- Palmar-plantar erythrodysaesthesia syndrome (Total QDx3d QW (N = 14)): 1 (7%)
- Patients Reporting at Least One Related TEAE (Total QDx3d QW (N = 14)): 11 (79%)
- Platelet count decreased (Total QDx3d QW (N = 14)): 1 (7%)
- Pruritus (Total QDx3d QW (N = 14)): 4 (29%)
- Pyrexia (Total QDx3d QW (N = 14)): 1 (7%)
- Rash (Total QDx3d QW (N = 14)): 4 (29%)
- Rash macular (Total QDx3d QW (N = 14)): 1 (7%)
- Urinary tract infection (Total QDx3d QW (N = 14)): 1 (7%)
- Vomiting (Total QDx3d QW (N = 14)): 3 (21%)
- Asthenia (Total QDx3d QW (N = 14), 2nd Asthenia line): 1 (7%)
- Diarrhoea (Total QDx5d QW (N = 6)): 1 (17%)
- Patients Reporting at Least One Related TEAE (Total QDx5d QW (N = 6)): 2 (33%)
- Rash (Total QDx5d QW (N = 6)): 1 (17%)
- Urine tract infection (Total QDx5d QW (N = 6)): 1 (17%)
- Vomiting (Total QDx5d QW (N = 6)): 1 (17%)
- Nausea (Total QDx5d QW (N = 6), 1st Nausea line): 1 (17%)
- Nausea (Total QDx5d QW (N = 6), 2nd Nausea line): 1 (17%)
- ASTHENIA (Total QW Dosing (N = 15)): 1 (7%)
- ATHENIA (Total QW Dosing (N = 15)): 1 (7%)
- Alanine aminotransferase increased (Total QW Dosing (N = 15)): 1 (7%)
- Aspartate aminotransferase increased (Total QW Dosing (N = 15)): 2
- Asthenia (Total QW Dosing (N = 15)): 2
- Blood creatinine increased (Total QW Dosing (N = 15)): 1 (7%)
- Blood triglycerides increased (Total QW Dosing (N = 15)): 1 (7%)
- DIARRHEA (Total QW Dosing (N = 15)): 1 (7%)
- Decreased appetite (Total QW Dosing (N = 15)): 1 (7%)
- Diarrhoea (Total QW Dosing (N = 15)): 3
- Dysgeusia (Total QW Dosing (N = 15)): 1 (7%)
- Dyspepsia (Total QW Dosing (N = 15)): 1 (7%)
- HYPERGLYCEMIA (Total QW Dosing (N = 15)): 2
- Hyperglycaemia (Total QW Dosing (N = 15)): 5
- Lymphopenia (Total QW Dosing (N = 15)): 1 (7%)
- Malaise (Total QW Dosing (N = 15)): 1 (7%)
- Mucosal inflammation (Total QW Dosing (N = 15)): 3
- Muscle spasms (Total QW Dosing (N = 15)): 1 (7%)
- Nausea (Total QW Dosing (N = 15)): 10
- Oral discomfort (Total QW Dosing (N = 15)): 1 (7%)
- Patients Reporting at Least One Related TEAE (Total QW Dosing (N = 15)): 13
- Pruritus (Total QW Dosing (N = 15)): 1 (7%)
- RASH (Total QW Dosing (N = 15)): 1 (7%)
- Rash (Total QW Dosing (N = 15)): 1 (7%)
- Vomiting (Total QW Dosing (N = 15)): 5
- WEAKNESS (Total QW Dosing (N = 15)): 1 (7%)
- asthenia, AE considered possibly related [3]: 23%
- diarrhea, AE considered possibly related [3]: 20%
- hyperglycemia, AE considered possibly related [3]: 37%
- mucosal inflammation, AE considered possibly related [3]: 29%
- nausea, AE considered possibly related [3]: 51%
- rash, AE considered possibly related [3]: 23%
- vomiting, AE considered possibly related [3]: 26%
- grade of the majority of AEs considered possibly related (any regimen): Grade 1 or 2
- MTD (intermittent dosing): not reached
